For the test, the target named is T1, Androgen Receptor (AR) (Homo sapiens, UniProt P10275, T878A).
T1 construct: cell based immuno-fluorescence assay using the LNCaP prostate epithelial cell line; endogenous in cells; host or cells: LNCaP clone FGC (ATCC CRL-1740)
T1 sequence (P10275 1-920 T878A): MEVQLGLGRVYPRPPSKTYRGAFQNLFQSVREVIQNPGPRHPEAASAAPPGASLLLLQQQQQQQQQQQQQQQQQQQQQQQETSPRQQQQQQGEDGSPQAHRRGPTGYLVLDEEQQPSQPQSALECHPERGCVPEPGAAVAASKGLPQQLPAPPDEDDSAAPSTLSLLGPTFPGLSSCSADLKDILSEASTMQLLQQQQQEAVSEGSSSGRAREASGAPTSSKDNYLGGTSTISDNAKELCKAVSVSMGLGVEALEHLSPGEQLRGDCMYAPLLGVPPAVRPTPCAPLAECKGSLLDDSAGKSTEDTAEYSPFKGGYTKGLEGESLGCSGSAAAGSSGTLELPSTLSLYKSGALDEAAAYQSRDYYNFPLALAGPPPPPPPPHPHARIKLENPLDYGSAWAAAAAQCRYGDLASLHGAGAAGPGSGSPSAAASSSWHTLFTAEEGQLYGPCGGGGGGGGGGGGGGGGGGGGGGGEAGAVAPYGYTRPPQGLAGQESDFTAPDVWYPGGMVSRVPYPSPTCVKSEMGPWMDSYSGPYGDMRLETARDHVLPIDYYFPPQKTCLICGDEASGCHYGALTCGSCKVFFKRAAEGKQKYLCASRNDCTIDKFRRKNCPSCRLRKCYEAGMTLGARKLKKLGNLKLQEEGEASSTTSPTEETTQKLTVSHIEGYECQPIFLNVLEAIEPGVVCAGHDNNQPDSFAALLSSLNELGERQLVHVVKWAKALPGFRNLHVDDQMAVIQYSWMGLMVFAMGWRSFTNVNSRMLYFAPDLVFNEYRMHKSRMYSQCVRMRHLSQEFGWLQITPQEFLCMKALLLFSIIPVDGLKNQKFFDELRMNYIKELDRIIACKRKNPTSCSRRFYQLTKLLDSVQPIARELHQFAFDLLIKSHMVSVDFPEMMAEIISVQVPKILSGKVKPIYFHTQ
Nature of the test: LNCaP Androgen Receptor Down-regulation Cell Assay (immunofluorescence end point). Format: cell-based. The conditions noted are these: LNCaP prostate carcinoma cells, compound incubation 20-22 hours, 50% reduction of the AR signal; read-out: Androgen Receptor Down-regulation Assay (a) IC50/μM. Summed up: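 AR loss reported as IC50 from curve fits of fluorescence dose-response data, with AR immunostained and read by laser-scanning cytometry. Compound exposure was 20-22 h at 37° C in LNCaP cells grown in 5% charcoal-stripped FBS and plated overnight beforehand.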
Take `COc1ccccc1CN1CCN(c2ccc3nnc(C(F)(F)F)n3n2)CC1` [Example 75, 6-[4-[(2-methoxyphenyl)methyl]piperazin-1-yl]-3-(trifluoromethyl)-[1,2,4]triazolo[4,3-b]pyridazine]: the DC50 came out at 2.3 µM.

As to `FC(F)(F)c1nnc2ccc(N3CCN(Cc4cccc5c4OCCO5)CC3)nn12` [Example 76, 6-[4-(2,3-dihydro-1,4-benzodioxin-5-ylmethyl)piperazin-1-yl]-3-(trifluoromethyl)-[1,2,4]triazolo[4,3-b]pyridazine], the DC50 came out at 2.3 µM. With `FC(F)(F)c1nnc2ccc(N3CCN(Cc4ccc5[nH]ccc5c4)CC3)nn12` [Example 77, 6-[4-(1H-indol-5-ylmethyl)piperazin-1-yl]-3-(trifluoromethyl)-[1,2,4]triazolo[4,3-b]pyridazine] the figure was 1.4 µM; with `FC(F)(F)c1nnc2ccc(N3CCN(Cc4ccco4)CC3)nn12` [Example 79, 6-[4-(furan-2-ylmethyl)piperazin-1-yl]-3-(trifluoromethyl)-[1,2,4]triazolo[4,3-b]pyridazine], 2.4 µM; with `FC(F)(F)c1nnc2ccc(N3CCN(Cc4cccnc4)CC3)nn12` [Example 81, 6-[4-(pyridin-3-ylmethyl)piperazin-1-yl]-3-(trifluoromethyl)-[1,2,4]triazolo[4,3-b]pyridazine], 7.2 µM. As for `COc1cccc(CN2CCN(c3ccc4nnc(C(F)(F)F)n4n3)CC2)c1` [Example 82, 6-[4-[(3-methoxyphenyl)methyl]piperazin-1-yl]-3-(trifluoromethyl)-[1,2,4]triazolo[4,3-b]pyridazine], the DC50 was 1.6 µM.

Regarding `FC(F)(F)c1nnc2ccc(N3CCN(Cc4ccc[nH]4)CC3)nn12` [Example 83, 6-[4-(1H-pyrrol-2-ylmethyl)piperazin-1-yl]-3-(trifluoromethyl)-[1,2,4]triazolo[4,3-b]pyridazine], the DC50 came to 2.5 µM. With `FC(F)(F)c1nnc2ccc(N3CCN(Cc4ccc5c(c4)CCO5)CC3)nn12` [Example 84, 6-[4-(2,3-dihydro-1-benzofuran-5-ylmethyl)piperazin-1-yl]-3-(trifluoromethyl)-[1,2,4]triazolo[4,3-b]pyridazine] the figure was 1.8 µM; with `FC(F)(F)c1nnc2ccc(N3CCN(Cc4ccc5c(c4)OCO5)CC3)nn12` [Example 85, 6-[4-(1,3-benzodioxol-5-ylmethyl)piperazin-1-yl]-3-(trifluoromethyl)-[1,2,4]triazolo[4,3-b]pyridazine], 1.6 µM. In the case of `Cn1cccc1CN1CCN(c2ccc3nnc(C(F)(F)F)n3n2)CC1` [Example 87, 6-[4-[(1-methylpyrrol-2-yl)methyl]piperazin-1-yl]-3-(trifluoromethyl)-[1,2,4]triazolo[4,3-b]pyridazine], the DC50 was 5.2 µM. As to `FC(F)(F)c1nnc2ccc(N3CCN(Cc4ccc5c(c4)OCCO5)CC3)nn12` [Example 88, 6-[4-(2,3-dihydro-1,4-benzodioxin-6-ylmethyl)piperazin-1-yl]-3-(trifluoromethyl)-[1,2,4]triazolo[4,3-b]pyridazine], the DC50 amounted to 1.5 µM.

With `Cn1cncc1CN1CCN(c2ccc3nnc(C(F)(F)F)n3n2)CC1` [Example 89, 6-[4-[(3-methylimidazol-4-yl)methyl]piperazin-1-yl]-3-(trifluoromethyl)-[1,2,4]triazolo[4,3-b]pyridazine], the DC50 was 23 µM. With `FC(F)(F)c1nnc2ccc(N3CCN(Cc4ccoc4)CC3)nn12` [Example 90, 6-[4-(furan-3-ylmethyl)piperazin-1-yl]-3-(trifluoromethyl)-[1,2,4]triazolo[4,3-b]pyridazine] the figure was 3.2 µM.

Regarding `FC(F)(F)c1nnc2ccc(N3CCN(Cc4c[nH]c5ccccc45)CC3)nn12` [Example 94, 6-[4-(1H-indol-3-ylmethyl)piperazin-1-yl]-3-(trifluoromethyl)-[1,2,4]triazolo[4,3-b]pyridazine], the DC50 stood at 0.93 µM.

These data come from patent publication US8003649B2 (AstraZeneca AB, priority 2007, dated 2011).
